Data from ChEMBL document CHEMBL4483862, “Open-source discovery of chemical leads for next-generation chemoprotective antimalarials” (2018).

Test system: Plasmodium berghei
Assay: Luciferase/luciferin-expressing antifolate-resistant parasites were used to infect a culture of HepG2 cells that were pre-incubated with compounds. Infected hepatocytes emit light due to the luciferase reaction. Assay results are presented as the percent inhibition of light emission compared to control. […]
Format: functional
Settings: sporozoite; for IC90: read-out: LUCIFERASE INFECTION ASSAY - IC90
[1] = read-out: LUCIFERASE INFECTION ASSAY - IC50

SMILES | IC90 | further results
CCOC(=O)c1c(NC(=O)C(C)OC(=O)c2ccccc2Sc2ccccc2C#N)sc2c1CCCC2 (configuration not stated) | > 10 µM | IC50 [1]: > 10 µM
COc1ccc(-c2nc3ccc(NC(=O)Nc4ccc(C)cc4)cn3n2)cc1 | 7.53 µM | IC50 (HEPG2TOX_HILL_SLOPE 50, HEPG2TOX_R_SQUARED 0.291, PBLUC_HILL_SLOPE 5.1, PBLUC_R_SQUARED 0.322, read-out: LUCIFERASE INFECTION ASSAY - IC50): 4.9 µM
COC(=O)CCSc1c2ccc(Cl)cc2nc2ccc(OC)cc12 | 0.454 µM | IC50 (PBLUC_HILL_SLOPE 2.8, PBLUC_R_SQUARED 0.704, read-out: LUCIFERASE INFECTION ASSAY - IC50): 0.207 µM
COc1ccccc1-[n+]1c(C)cc(C=C2Sc3ccc4ccccc4c3N2C)cc1C | 0.611 µM | IC50 (HEPG2TOX_HILL_SLOPE 0.863, HEPG2TOX_R_SQUARED 0.853, PBLUC_HILL_SLOPE 2.28, PBLUC_R_SQUARED 0.851, read-out: LUCIFERASE INFECTION ASSAY - IC50): 0.233 µM
C/C(=N\N=C(N)N)c1ccc(Cl)c(Cl)c1 | > 10 µM | IC50 (PBLUC_HILL_SLOPE 2.49, PBLUC_R_SQUARED 0.254, read-out: LUCIFERASE INFECTION ASSAY - IC50): 4.31 µM
Cc1ccc(-c2nnc(SCC(=O)Nc3ccc(S(=O)(=O)N4CCCC4)cc3)[nH]2)cc1 | > 10 µM | IC50 [1]: > 10 µM
c1ccc(NCCNc2nc(-c3ccncc3)nc3ccccc23)nc1 | > 10 µM | IC50 (PBLUC_HILL_SLOPE 1.36, PBLUC_R_SQUARED 0.325, read-out: LUCIFERASE INFECTION ASSAY - IC50): 5.09 µM
CC1CC(C)CN(C(=O)c2ccccc2C(=O)OCC(=O)NCc2cccs2)C1 (configuration not stated) | > 10 µM | IC50 [1]: > 10 µM
CCN(C(=O)c1ccccc1Br)c1nc2c(C)cccc2s1 | > 10 µM | IC50 [1]: > 10 µM
OC[C@H]1O[C@@H](c2nc(-c3nc(-c4ccc5[nH]ccc5c4)no3)cs2)[C@H](O)[C@@H]1O | 1.55 µM | IC50 (PBLUC_HILL_SLOPE 1.16, PBLUC_R_SQUARED 0.583, read-out: LUCIFERASE INFECTION ASSAY - IC50): 0.232 µM
CC(=O)c1cccc(-c2cnc3ccc(-c4cccc(OC(F)(F)F)c4)nn23)c1 | > 10 µM | IC50 (HEPG2TOX_HILL_SLOPE 7.2, HEPG2TOX_R_SQUARED 0.65, PBLUC_HILL_SLOPE 0.974, PBLUC_R_SQUARED 0.617, read-out: LUCIFERASE INFECTION ASSAY - IC50): 1.38 µM
CN(C)C(=O)c1ccc(-c2ccnc3n[nH]c(-c4ccc(Cl)cc4)c23)cc1 | 7.75 µM | IC50 (HEPG2TOX_HILL_SLOPE 12.3, HEPG2TOX_R_SQUARED 0.411, PBLUC_HILL_SLOPE 3.78, PBLUC_R_SQUARED 0.252, read-out: LUCIFERASE INFECTION ASSAY - IC50): 4.33 µM
Cc1cc(C2=NN/C(=N\C(C)(C)C)SC2)c(C)n1C(C)C | > 10 µM | IC50 (PBLUC_HILL_SLOPE 15.1, PBLUC_R_SQUARED 0.242, read-out: LUCIFERASE INFECTION ASSAY - IC50): 9.12 µM
O=C1Nc2ccccc2/C1=C/c1ccccc1N1CCOCC1 | > 10.8 µM | IC50 (HEPG2TOX_HILL_SLOPE 1.93, HEPG2TOX_R_SQUARED 0.799, PBLUC_HILL_SLOPE 2.49, PBLUC_R_SQUARED 0.295, read-out: LUCIFERASE INFECTION ASSAY - IC50): 5.94 µM
CCc1nn2c(=O)cc(CSc3nccc(C)n3)[nH]c2c1-c1ccc(F)cc1 | > 8.34 µM | IC50 (HEPG2TOX_HILL_SLOPE 0.32, HEPG2TOX_R_SQUARED 0.345, PBLUC_HILL_SLOPE 2.6, PBLUC_R_SQUARED 0.743, read-out: LUCIFERASE INFECTION ASSAY - IC50): 4.67 µM
CC1=NN(c2ccccc2)C(=O)/C1=C\c1cc(C)n(-c2cc(C(F)(F)F)ccc2Cl)c1C | > 10 µM | IC50 (FFLUC_HILL_SLOPE 2.69, FFLUC_R_SQUARED 0.551, PBLUC_HILL_SLOPE 5.7, PBLUC_R_SQUARED 0.538, read-out: LUCIFERASE INFECTION ASSAY - IC50): 7.1 µM
Cc1nn(-c2ccccc2)c(C)c1C(=O)NCc1cccc(NC(=O)C(C)C)c1 | 7.7 µM | IC50 (PBLUC_HILL_SLOPE 6.57, PBLUC_R_SQUARED 0.408, read-out: LUCIFERASE INFECTION ASSAY - IC50): 5.51 µM
CC(C)N(c1ccccc1)c1ccc(NC(=O)COC(=O)c2ccc(Cl)c(S(=O)(=O)N(Cc3ccccc3)c3ccc(Cl)cc3)c2)cc1 | > 10 µM | IC50 (FFLUC_HILL_SLOPE 30.3, FFLUC_R_SQUARED 0.617, PBLUC_HILL_SLOPE 4.64, PBLUC_R_SQUARED 0.334, read-out: LUCIFERASE INFECTION ASSAY - IC50): 9.19 µM
CCC(C)N1C(=O)Cc2c1nc(N)c1c(N)nc(N3CC(C)OC(C)C3)c(C#N)c21 (configuration not stated) | > 10 µM | IC50 [1]: > 10 µM
C=CCn1c(C)cc(C(=O)CNC(=O)Nc2ccccc2)c1C | > 10 µM | IC50 (HEPG2TOX_HILL_SLOPE 12.5, HEPG2TOX_R_SQUARED 0.766, PBLUC_HILL_SLOPE 0.462, PBLUC_R_SQUARED 0.648, read-out: LUCIFERASE INFECTION ASSAY - IC50): 0.495 µM
CN(C)c1nc(N)nc(COC(=O)c2cccc(Br)c2)n1 | > 10 µM | IC50 [1]: > 10 µM

SMILES | IC90 | further results
CCc1nn2c(=O)cc(CSc3nnc(-c4cc(C)cc(C)c4)o3)nc2s1 | > 10 µM | IC50 [1]: > 10 µM
S=c1sc(Nc2ccc(Oc3ccccc3)cc2)nn1CN1CCN(c2ncccn2)CC1 | > 10 µM | IC50 (PBLUC_HILL_SLOPE 0.972, PBLUC_R_SQUARED 0.697, read-out: LUCIFERASE INFECTION ASSAY - IC50): 3.61 µM
CCOc1cc(/C=C2\CN(C)C/C(=C\c3ccc(O)c(OCC)c3)C2=O)ccc1O | 6.75 µM | IC50 (HEPG2TOX_HILL_SLOPE 12.2, HEPG2TOX_R_SQUARED 0.94, PBLUC_HILL_SLOPE 1.92, PBLUC_R_SQUARED 0.794, read-out: LUCIFERASE INFECTION ASSAY - IC50): 2.16 µM
Cc1ccc(S(=O)(=O)NN=c2nc[nH]c3sccc23)cc1 | 5.7 µM | IC50 [1]: 2.59 µM
COc1ccc(CNC(=O)N(C)CCOc2ccc(OC)cc2)cc1 | > 10 µM | IC50 (FFLUC_HILL_SLOPE 0.273, FFLUC_R_SQUARED 0.253, HEPG2TOX_HILL_SLOPE 16.5, HEPG2TOX_R_SQUARED 0.443, PBLUC_HILL_SLOPE 9.82, PBLUC_R_SQUARED 0.776, read-out: LUCIFERASE INFECTION ASSAY - IC50): 8.44 µM
C/C(=N\NC(=S)NCC(C)(C)C)c1cc(F)ccc1O | > 11.1 µM | IC50 [1]: > 11.1 µM
CC(C)(C)NC(=O)CN1CCN(Cc2ccc(-c3ccccc3C#N)cc2)CC1 | > 10 µM | IC50 (HEPG2TOX_HILL_SLOPE 0.417, HEPG2TOX_R_SQUARED 0.524, read-out: LUCIFERASE INFECTION ASSAY - IC50): > 10 µM
COC(=O)c1ccc(COc2ccc(/C=N/Nc3ccnc4cc(Cl)ccc34)cc2OC)cc1 | > 10 µM | IC50 [1]: > 10 µM
COc1ccc2c(-c3ccccc3)cc(SC(c3ccccc3)c3ccccc3)nc2c1 | > 10 µM | IC50 (FFLUC_HILL_SLOPE 74, FFLUC_R_SQUARED 0.292, read-out: LUCIFERASE INFECTION ASSAY - IC50): > 10 µM
CCCOc1ccc(/C=N/NC(=S)NCCCN2CCOCC2)c(OCCC)c1 | > 10 µM | IC50 (PBLUC_HILL_SLOPE 4.29, PBLUC_R_SQUARED 0.235, read-out: LUCIFERASE INFECTION ASSAY - IC50): 8.13 µM
O=[N+]([O-])c1cc(/C=C/c2nc3ccccc3s2)ccc1N1CCOCC1 | > 10 µM | IC50 (PBLUC_HILL_SLOPE 0.872, PBLUC_R_SQUARED 0.699, read-out: LUCIFERASE INFECTION ASSAY - IC50): 1.4 µM
Cc1nn(-c2ccccc2)c(C)c1C(=O)C(=O)NC(C)c1ccc(S(N)(=O)=O)cc1 (configuration not stated) | > 10 µM | IC50 [1]: > 10 µM
CCOC(=O)CC(=O)CSc1nnc(-c2ccccc2Cl)n1-c1ccccc1F | 0.0166 µM | IC50 (PBLUC_HILL_SLOPE 12.3, PBLUC_R_SQUARED 0.795, read-out: LUCIFERASE INFECTION ASSAY - IC50): 0.0139 µM
CNc1ccccc1C(C)(C)c1cc(NC(=O)C2CCCC2)sc1C(=O)c1ccc(Cl)cc1 | > 10 µM | IC50 (HEPG2TOX_HILL_SLOPE 6.51, HEPG2TOX_R_SQUARED 0.0707, read-out: LUCIFERASE INFECTION ASSAY - IC50): > 10 µM
C=C(C)C/N=c1\scc(-c2ccc(OC)cc2OC)n1/N=C(\C)c1ccc(OC)cc1 | > 10 µM | IC50 (FFLUC_HILL_SLOPE 13, FFLUC_R_SQUARED 0.36, read-out: LUCIFERASE INFECTION ASSAY - IC50): > 10 µM
Cc1cccc(C(=O)Nc2nnc(SCc3ccc(C#N)cc3)s2)n1 | 6.71 µM | IC50 (FFLUC_HILL_SLOPE 1.7, FFLUC_R_SQUARED 0.312, PBLUC_HILL_SLOPE 60.1, PBLUC_R_SQUARED 0.803, read-out: LUCIFERASE INFECTION ASSAY - IC50): 6.47 µM
CNC(=O)c1ccc(/C=C/C(=O)N(c2ccc(C)c(F)c2)c2nc3ccccc3s2)cc1 | 8.92 µM | IC50 (FFLUC_HILL_SLOPE 1.49, FFLUC_R_SQUARED 0.0757, PBLUC_HILL_SLOPE 4.44, PBLUC_R_SQUARED 0.348, read-out: LUCIFERASE INFECTION ASSAY - IC50): 5.44 µM
CCOC(=O)c1c(C)[nH]c(C(=O)C(C)OC(=O)CN2C(=O)C3CC=CCC3C2=O)c1C (configuration not stated) | > 10 µM | IC50 (HEPG2TOX_HILL_SLOPE 1.33, HEPG2TOX_R_SQUARED 0.914, read-out: LUCIFERASE INFECTION ASSAY - IC50): > 10 µM
Cc1onc(-c2ccc(Cl)cc2Cl)c1-c1csc(Nc2c(Cl)cccc2Cl)n1 | > 7 µM | IC50 (PBLUC_HILL_SLOPE 16.2, PBLUC_R_SQUARED 0.0753, read-out: LUCIFERASE INFECTION ASSAY - IC50): 6.45 µM
COc1ccc(C(C)(C)C)cc1NC(=O)COC(=O)c1c(-c2ccccc2)csc1NC(=O)C=C(C)C | 8.12 µM | IC50 (FFLUC_HILL_SLOPE 1.58, FFLUC_R_SQUARED 0.454, PBLUC_HILL_SLOPE 2.65, PBLUC_R_SQUARED 0.35, read-out: LUCIFERASE INFECTION ASSAY - IC50): 3.55 µM
